From ChEMBL document CHEMBL1139969, “Novel and potent 3-(2,3-dichlorophenyl)-4-(benzyl)-4H-1,2,4-triazole P2X7 antagonists” (Bioorg Med Chem Lett, 2007)
Calls of active or inactive are those of the source. The calls are words filed in the database; no cut-off is given here.

Columns and labels:
P2X purinoceptor 7 [1] = biological target: T1, P2X purinoceptor 7 (Homo sapiens, UniProt Q99572); assay: Antagonist activity at human recombinant P2X7 receptor; type: functional
T1 sequence (Q99572 whole entry): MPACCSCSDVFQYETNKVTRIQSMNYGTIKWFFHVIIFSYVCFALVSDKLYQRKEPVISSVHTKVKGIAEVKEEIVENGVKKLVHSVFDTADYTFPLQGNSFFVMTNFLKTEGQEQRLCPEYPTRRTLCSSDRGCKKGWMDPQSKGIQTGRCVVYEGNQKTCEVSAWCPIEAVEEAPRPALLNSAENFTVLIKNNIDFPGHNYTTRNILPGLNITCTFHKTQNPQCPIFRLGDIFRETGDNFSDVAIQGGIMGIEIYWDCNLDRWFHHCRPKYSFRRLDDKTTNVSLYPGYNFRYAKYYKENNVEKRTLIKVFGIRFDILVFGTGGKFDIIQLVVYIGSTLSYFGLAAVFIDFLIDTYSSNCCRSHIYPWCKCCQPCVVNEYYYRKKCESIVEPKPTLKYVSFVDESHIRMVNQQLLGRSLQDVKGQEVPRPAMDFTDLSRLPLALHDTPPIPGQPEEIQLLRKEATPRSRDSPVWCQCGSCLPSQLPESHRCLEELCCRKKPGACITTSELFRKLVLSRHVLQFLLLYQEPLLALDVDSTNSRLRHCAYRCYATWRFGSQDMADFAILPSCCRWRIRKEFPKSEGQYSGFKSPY

THP-1 = assay: Inhibition of IL1-beta release from THP1 cells; type: functional, cell-based; conditions: Homo sapiens
P2X purinoceptor 7 [2] = biological target: T2, P2X purinoceptor 7 (Rattus norvegicus, UniProt Q64663); assay: Antagonist activity at rat recombinant P2X7 receptor; type: functional
T2 sequence (Q64663 whole entry): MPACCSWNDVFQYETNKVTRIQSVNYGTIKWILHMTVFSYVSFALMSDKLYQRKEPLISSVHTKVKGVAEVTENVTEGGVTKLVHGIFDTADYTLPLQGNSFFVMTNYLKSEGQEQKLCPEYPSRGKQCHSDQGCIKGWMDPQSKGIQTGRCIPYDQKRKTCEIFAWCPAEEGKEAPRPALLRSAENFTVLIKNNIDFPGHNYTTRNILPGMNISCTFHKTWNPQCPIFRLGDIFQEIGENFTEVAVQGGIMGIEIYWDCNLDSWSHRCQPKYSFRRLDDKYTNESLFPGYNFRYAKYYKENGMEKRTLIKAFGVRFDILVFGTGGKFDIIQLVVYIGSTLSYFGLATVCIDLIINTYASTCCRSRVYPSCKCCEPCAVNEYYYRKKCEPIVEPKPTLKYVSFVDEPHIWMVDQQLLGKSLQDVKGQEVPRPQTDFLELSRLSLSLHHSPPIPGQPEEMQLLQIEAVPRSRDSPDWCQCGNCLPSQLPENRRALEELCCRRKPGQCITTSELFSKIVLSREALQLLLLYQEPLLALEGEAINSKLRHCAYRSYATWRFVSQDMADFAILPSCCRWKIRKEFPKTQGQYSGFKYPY

[3] = Half life in ip dosed rat Chung model of neuropathic pain; type: ADME, organism-based; conditions: in vivo
[4] = Tmax in rat at 5 umol/kg, ip; type: ADME, organism-based; conditions: in vivo
Homo sapiens = organism: Homo sapiens; assay: Activity at human P2X2/3 receptor at 10 uM
[5] = Bioavailability in ip dosed rat Chung model of neuropathic pain; type: ADME, organism-based; conditions: in vivo
[6] = biological target: P2Y purinoceptor 1 (Homo sapiens) (UniProt P47900); assay: Activity at human P2Y1 receptor at 10 uM
P2Y purinoceptor 1 (Homo sapiens), sequence (P47900 whole entry): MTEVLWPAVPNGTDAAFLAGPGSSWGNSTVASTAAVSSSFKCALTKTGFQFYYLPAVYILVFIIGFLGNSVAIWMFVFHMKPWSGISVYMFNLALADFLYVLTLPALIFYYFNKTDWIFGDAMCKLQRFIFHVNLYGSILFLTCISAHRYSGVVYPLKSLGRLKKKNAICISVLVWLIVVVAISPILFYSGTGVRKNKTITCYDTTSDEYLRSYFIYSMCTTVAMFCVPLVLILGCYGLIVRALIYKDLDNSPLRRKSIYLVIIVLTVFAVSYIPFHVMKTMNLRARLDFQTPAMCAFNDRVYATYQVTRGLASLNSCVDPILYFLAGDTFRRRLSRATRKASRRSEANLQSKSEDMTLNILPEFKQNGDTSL

[7] = biological target: P2Y purinoceptor 2 (Homo sapiens) (UniProt P41231); assay: Activity at human P2Y2 receptor at 10 uM
P2Y purinoceptor 2 (Homo sapiens), sequence (P41231 whole entry): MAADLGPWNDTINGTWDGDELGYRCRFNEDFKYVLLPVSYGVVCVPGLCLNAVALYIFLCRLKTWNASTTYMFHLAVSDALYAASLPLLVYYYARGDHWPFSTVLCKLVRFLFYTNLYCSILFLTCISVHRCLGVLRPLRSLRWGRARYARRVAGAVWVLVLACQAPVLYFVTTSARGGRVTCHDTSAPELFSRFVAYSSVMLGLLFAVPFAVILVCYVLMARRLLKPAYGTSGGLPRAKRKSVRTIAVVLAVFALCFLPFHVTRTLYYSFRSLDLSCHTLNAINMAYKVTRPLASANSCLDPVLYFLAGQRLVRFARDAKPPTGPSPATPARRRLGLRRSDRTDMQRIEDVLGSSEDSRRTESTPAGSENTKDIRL

[8] = Cmax in rat at 5 umol/kg, ip; type: ADME, organism-based; design: dose 5 umol/kg, route intraperitoneal; conditions: in vivo
[9] = Volume of distribution at terminal phase in rat at 5 umol/kg, iv; type: ADME, organism-based; conditions: in vivo
[10] = Clearance in rat at 5 umol/kg, iv; type: ADME, organism-based; conditions: in vivo
[11] = biological target: T3, P2X purinoceptor 2 (Homo sapiens) (UniProt Q9UBL9); assay: Antagonist activity at human P2X2 receptor at 10 uM; type: functional
T3 sequence (whole entry): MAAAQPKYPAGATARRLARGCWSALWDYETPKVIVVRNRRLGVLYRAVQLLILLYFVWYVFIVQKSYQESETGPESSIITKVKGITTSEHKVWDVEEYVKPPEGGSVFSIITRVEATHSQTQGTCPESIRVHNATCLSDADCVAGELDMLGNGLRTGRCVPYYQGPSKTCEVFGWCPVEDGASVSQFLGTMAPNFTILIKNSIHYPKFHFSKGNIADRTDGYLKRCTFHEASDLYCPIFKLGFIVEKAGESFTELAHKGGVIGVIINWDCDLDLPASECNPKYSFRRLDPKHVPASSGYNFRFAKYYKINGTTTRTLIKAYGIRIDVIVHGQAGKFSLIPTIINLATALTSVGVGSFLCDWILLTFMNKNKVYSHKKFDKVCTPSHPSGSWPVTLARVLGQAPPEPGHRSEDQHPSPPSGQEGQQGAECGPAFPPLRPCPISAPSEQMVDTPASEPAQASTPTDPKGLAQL

[12] = biological target: T4, P2X purinoceptor 1 (Homo sapiens) (UniProt P51575); assay: Activity at human P2X1 receptor at 10 uM
T4 sequence (whole entry): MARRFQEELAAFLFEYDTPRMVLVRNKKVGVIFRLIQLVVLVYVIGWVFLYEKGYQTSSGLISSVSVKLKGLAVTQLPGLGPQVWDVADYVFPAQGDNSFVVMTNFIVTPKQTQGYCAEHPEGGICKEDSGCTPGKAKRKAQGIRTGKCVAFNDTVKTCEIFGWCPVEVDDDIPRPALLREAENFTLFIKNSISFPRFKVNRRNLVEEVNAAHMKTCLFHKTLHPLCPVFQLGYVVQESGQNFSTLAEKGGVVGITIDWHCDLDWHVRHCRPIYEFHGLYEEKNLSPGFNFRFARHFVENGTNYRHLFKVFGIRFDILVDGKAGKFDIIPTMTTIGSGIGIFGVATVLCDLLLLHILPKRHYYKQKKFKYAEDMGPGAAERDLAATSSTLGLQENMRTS

[13] = Oral bioavailability in rat at 5 umol/kg; type: ADME, organism-based; conditions: in vivo
[14] = biological target: T5, P2X purinoceptor 4 (Homo sapiens) (UniProt Q99571); assay: Activity at human P2X4 receptor at 10 uM
T5 sequence (whole entry): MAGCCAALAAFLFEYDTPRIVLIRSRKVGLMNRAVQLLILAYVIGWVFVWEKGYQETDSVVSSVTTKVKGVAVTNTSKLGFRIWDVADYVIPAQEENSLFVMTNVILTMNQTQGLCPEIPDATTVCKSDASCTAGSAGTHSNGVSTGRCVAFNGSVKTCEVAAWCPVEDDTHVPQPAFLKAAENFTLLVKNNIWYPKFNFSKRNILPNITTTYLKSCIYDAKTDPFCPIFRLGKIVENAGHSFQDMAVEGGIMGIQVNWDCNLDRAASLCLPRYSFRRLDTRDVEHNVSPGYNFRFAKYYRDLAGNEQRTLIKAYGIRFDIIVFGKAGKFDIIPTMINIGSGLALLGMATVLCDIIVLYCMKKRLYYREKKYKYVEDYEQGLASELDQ

[15] = biological target: Translocator protein (Homo sapiens) (UniProt P30536); assay: Activity at peripheral benzodiazepine receptor at 10 uM
Translocator protein (Homo sapiens), sequence (P30536 whole entry): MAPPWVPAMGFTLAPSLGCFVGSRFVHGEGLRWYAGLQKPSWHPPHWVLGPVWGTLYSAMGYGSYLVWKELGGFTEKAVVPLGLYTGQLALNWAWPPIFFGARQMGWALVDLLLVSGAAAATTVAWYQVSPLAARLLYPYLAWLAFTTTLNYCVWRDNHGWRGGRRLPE

Rattus norvegicus = organism: Rattus norvegicus; assay: Antinociceptive activity in rat Chung model of neuropathic pain assessed as reversal of allodynia after 30 mins; type: functional

SMILES | IC50 (P2X purinoceptor 7 [1]) [nM] | also measured
COc1ccccc1Cn1cnnc1-c1cccc(Cl)c1Cl | 191 | –
Clc1cccc(-c2nncn2[C@@H]2CCc3ccccc32)c1Cl | 19.1 | IC50 (THP-1): 75.9 nM; IC50 (P2X purinoceptor 7 [2]): 77.6 nM
Clc1cccc(-c2ncnn2Cc2ccccc2)c1Cl | 302 | –
FC(F)(F)c1ccc(Cn2cnnc2-c2cccc(Cl)c2Cl)cc1 | 8910 | –
Cc1ccc(F)cc1Cn1cnnc1-c1cccc(Cl)c1Cl | 47.9 | IC50 (THP-1): 240 nM; IC50 (P2X purinoceptor 7 [2]): 550 nM
COc1cccc(Cn2cnnc2-c2cccc(Cl)c2Cl)c1 | 214 | –
Clc1cccc(-c2ccnn2Cc2ccccc2)c1Cl | 6030 | –
CSc1ccccc1Cn1cnnc1-c1cccc(C(F)(F)F)c1Cl | 26.9 | –
Clc1cccc(-n2nncc2Cc2ccccc2)c1Cl | 427 | –
O=C(NCC12CC3CC(CC(C3)C1)C2)c1cccc(Cl)c1Cl | 64.6 | IC50 (P2X purinoceptor 7 [2]): 813 nM
Clc1cccc(-c2nncn2Cc2ccccc2)c1Cl | 525 | –
Cc1ccccc1Cn1cnnc1-c1cccc(Cl)c1Cl | 77.6 | half-life [3]: 1.7 h; Tmax [4]: 0.33 h; Activity (Homo sapiens): inactive; bioavailability [5]: 62%; Activity [6]: inactive; Activity [7]: inactive; Cmax [8]: 210 ng/mL; Vd [9]: 1.9 L/kg; clearance [10]: 51.7 mL/min/kg; IC50 (THP-1): 372 nM; Activity [11]: inactive; Activity [12]: inactive; bioavailability [13]: 15%; IC50 (P2X purinoceptor 7 [2]): 209 nM; Activity [14]: inactive; Activity [15]: 86%; Efficacy (Rattus norvegicus): 68%; ED50 (Rattus norvegicus; Rattus norvegicus, 0.5 h): 125 µmol/kg
Clc1ccc(Cn2cnnc2-c2cccc(Cl)c2Cl)c(Cl)c1 | 331 | –
Clc1cccc(-n2ncnc2Cc2ccccc2)c1Cl | 209 | –
FC(F)(F)c1cccc(Cn2cnnc2-c2cccc(Cl)c2Cl)c1 | 1290 | –
Fc1ccc(C(F)(F)F)c(Cn2cnnc2-c2cccc(Cl)c2Cl)c1 | 49 | –

SMILES | IC50 (P2X purinoceptor 7 [1]) [nM] | also measured
Clc1cccc(-c2cnnn2Cc2ccccc2)c1Cl | 603 | –
Clc1ccc(Cl)c(Cn2cnnc2-c2cccc(Cl)c2Cl)c1 | 138 | –
Clc1cccc(-c2cncn2Cc2ccccc2)c1Cl | 1820 | –
CC(c1ccccc1)n1cnnc1-c1cccc(Cl)c1Cl (stereo not given) | 1050 | –
Clc1cccc(-c2nncn2[C@H]2CCc3ccccc32)c1Cl | 50.1 | –
Clc1cccc(-c2nncn2Cc2cccc3ccccc23)c1Cl | 58.9 | –
FC(F)(F)c1ccccc1Cn1cnnc1-c1cccc(Cl)c1Cl | 132 | –
CC(C)(c1ccccc1)n1cnnc1-c1cccc(Cl)c1Cl | 13200 | –
Clc1cccc(-c2nnnn2Cc2ccccc2)c1Cl | – | IC50 (THP-1): 2510 nM; IC50 (P2X purinoceptor 7 [2]): 75.9 nM
FC(F)c1ccccc1Cn1cnnc1-c1cccc(Cl)c1Cl | 117 | –
COc1cccc(Cn2cnnc2-c2cccc(Cl)c2Cl)c1OC | 132 | –
CSc1ccccc1Cn1cnnc1-c1cccc(Cl)c1Cl | 49 | –
CS(=O)(=O)c1ccccc1Cn1cnnc1-c1cccc(C(F)(F)F)c1Cl | 145 | –
Fc1ccc(C(F)(F)F)cc1Cn1cnnc1-c1cccc(Cl)c1Cl | 912 | –
Clc1cccc(Cn2cnnc2-c2cccc(Cl)c2Cl)c1Cl | 191 | –
